Assay results from PubChem BioAssay (NCI).
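Compound exposure: 48 hours, 5 concentrations, 96-well plates. Definition used: TGI = concentration required for complete inhibition of growth.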

How the values were obtained:
Assay in all cases: growth of human tumour cells (NCI), 48 h
[1] = tested on: OVCAR-4 ovarian
[2] = tested on: SK-MEL-28 melanoma
[3] = tested on: SR leukemia
[4] = tested on: NCI-H23 lung
[5] = tested on: MDA-N
[6] = tested on: SNB-19 CNS
[7] = tested on: A549 NSCLC
[8] = tested on: SK-MEL-5 melanoma
[9] = tested on: T-47D breast
[10] = tested on: KM12 colon
[11] = tested on: DU-145 prostate
[12] = tested on: COLO 205 colon
[13] = tested on: CCRF-CEM leukemia
[14] = tested on: NCI-H226 lung
[15] = tested on: LOX IMVI melanoma
[16] = tested on: A498 renal
[17] = tested on: SNB-75 CNS
[18] = tested on: NCI/ADR-RES ovarian
[19] = tested on: HOP-92 NSCLC
[20] = tested on: HCT-15 colon
[21] = tested on: MOLT-4 leukemia
[22] = tested on: SW-620 colon
[23] = tested on: UACC-257 melanoma
[24] = tested on: TK-10 renal
[25] = tested on: HS 578T breast
[26] = tested on: NCI-H460 lung
[27] = tested on: UO-31 renal
[28] = tested on: U251 CNS
[29] = tested on: ACHN renal
[30] = tested on: SK-OV-3 ovarian
[31] = tested on: RXF 393 renal
[32] = tested on: MDA-MB-231 breast
[33] = tested on: PC-3 prostate
[34] = tested on: OVCAR-3 ovarian
[35] = tested on: HT29 colon
[36] = tested on: NCI-H522 lung
[37] = tested on: MDA-MB-435
[38] = tested on: OVCAR-8 ovarian
[39] = tested on: HCC-2998 colon
[40] = tested on: SF-295 CNS
[41] = tested on: K-562 leukemia
[42] = tested on: HCT-116 colon
[43] = tested on: MCF7 breast
[44] = tested on: M14 melanoma
[45] = tested on: SN12C renal
[46] = tested on: SF-268 CNS
[47] = tested on: HOP-62 NSCLC
[48] = tested on: IGROV1 ovarian
[49] = tested on: EKVX NSCLC
[50] = tested on: RPMI-8226 leukemia
[51] = tested on: 786-0 renal
[52] = tested on: SK-MEL-2 melanoma
[53] = tested on: UACC-62 melanoma
[54] = tested on: CAKI-1 renal
[55] = tested on: SF-539 CNS
[56] = tested on: BT-549 breast
[57] = tested on: HL-60(TB) leukemia
[58] = tested on: OVCAR-5 ovarian

SMILES: CCOC(=O)C(COS(C)(=O)=O)(COS(C)(=O)=O)C(=O)OCC
- TGI [1]: > 100 µM
- TGI [2]: > 100 µM
- TGI [3]: > 100 µM
- TGI [4]: > 100 µM
- TGI [5]: > 100 µM
- TGI [6]: > 100 µM
- TGI [7]: > 100 µM
- TGI [8]: > 100 µM
- TGI [9]: > 100 µM
- TGI [10]: > 100 µM
- TGI [11]: > 100 µM
- TGI [12]: > 100 µM
- TGI [13]: > 100 µM
- TGI [14]: > 100 µM
- TGI [15]: > 100 µM
- TGI [16]: > 100 µM
- TGI [17]: > 100 µM
- TGI [18]: > 100 µM
- TGI [19]: > 100 µM
- TGI [20]: > 100 µM
- TGI [21]: > 100 µM
- TGI [22]: > 100 µM
- TGI [23]: > 100 µM
- TGI [24]: > 100 µM
- TGI [25]: > 100 µM
- TGI [26]: > 100 µM
- TGI [27]: > 100 µM
- TGI [28]: > 100 µM
- TGI [29]: > 100 µM
- TGI [30]: > 100 µM
- TGI [31]: > 100 µM
- TGI [32]: > 100 µM
- TGI [33]: > 100 µM
- TGI [34]: > 100 µM
- TGI [35]: > 100 µM
- TGI [36]: > 100 µM
- TGI [37]: > 100 µM
- TGI [38]: > 100 µM
- TGI [39]: > 100 µM
- TGI [40]: > 100 µM
- TGI [41]: > 100 µM
- TGI [42]: > 100 µM
- TGI [43]: > 100 µM
- TGI [44]: > 100 µM
- TGI [45]: > 100 µM
- TGI [46]: > 100 µM

SMILES: CC(C)(CNC(=O)/C(Cl)=C(/Cl)C(=O)O)CNC(=O)/C(Cl)=C(/Cl)C(=O)O
- TGI [1]: > 100 µM
- TGI [47]: > 100 µM
- TGI [48]: > 100 µM
- TGI [2]: > 100 µM
- TGI [3]: > 100 µM
- TGI [5]: > 100 µM
- TGI [49]: > 100 µM
- TGI [6]: > 100 µM
- TGI [7]: > 100 µM
- TGI [8]: > 100 µM
- TGI [9]: > 100 µM
- TGI [50]: 76.3 µM
- TGI [10]: > 100 µM
- TGI [51]: > 100 µM
- TGI [11]: > 100 µM
- TGI [12]: 35.6 µM
- TGI [13]: > 100 µM
- TGI [14]: > 100 µM
- TGI [15]: > 100 µM
- TGI [52]: > 100 µM
- TGI [16]: > 100 µM
- TGI [17]: > 100 µM
- TGI [18]: > 100 µM
- TGI [19]: > 100 µM
- TGI [21]: > 100 µM
- TGI [22]: > 100 µM
- TGI [23]: > 100 µM
- TGI [53]: > 100 µM
- TGI [24]: > 100 µM
- TGI [25]: > 100 µM
- TGI [26]: > 100 µM
- TGI [27]: > 100 µM
- TGI [28]: > 100 µM
- TGI [29]: 60.3 µM
- TGI [30]: > 100 µM
- TGI [31]: > 100 µM
- TGI [54]: > 100 µM
- TGI [33]: > 100 µM
- TGI [55]: > 100 µM
- TGI [34]: > 100 µM
- TGI [35]: > 100 µM
- TGI [36]: > 100 µM
- TGI [37]: > 100 µM
- TGI [38]: > 100 µM
- TGI [39]: > 100 µM
- TGI [56]: > 100 µM
- TGI [57]: > 100 µM
- TGI [40]: > 100 µM
- TGI [41]: > 100 µM
- TGI [42]: > 100 µM
- TGI [43]: > 100 µM
- TGI [58]: > 100 µM
